Columns and labels:
Cyclic voltammetry (CV) = format: physicochemical; details: about 1 mM in 1M sulfuric acid in water
Experimental: [drawing 47] (concentration about 1 mM in 1M sulfuric acid in water) was studied by cyclic voltammetry (CV).
[drawing 48] (concentration about 1 mM in 1M sulfuric acid in water) was studied by CV.
[drawing 50] (concentration about 1 mM in 1M sulfuric acid in water) was studied by CV.
[drawing 53] (concentration about 1 mM in 1M sulfuric acid in water) was studied by CV.

Solubility = format: physicochemical; details: pH 0

## O=C1c2ccccc2C(=O)c2c(O)c(SCCS(=O)(=O)O)c(SCCS(=O)(=O)O)c(O)c21 [Example 6, 2,2′-((1,4-dihydroxy-9,10-dioxo-9,10-dihydroanthracene-2,3-diyl)bis(sulfanediyl))bis(ethane-1-sulfonic acid)]
Cyclic voltammetry (CV)
  redox peaks location, higher-potential set: ~1.08 V
  redox peaks location, lower-potential set: ~0.11 V

## O=C1c2ccccc2C(=O)c2c1cc(S(=O)(=O)O)c(O)c2O [Example 3, 1,2-dihydroxy-9,10-anthraquinone-3-sulfonic acid]
Cyclic voltammetry (CV)
  redox peaks location, higher-potential set: ~1.3 V
  redox peaks location, lower-potential set: ~0.10 V

## O=C1c2ccccc2C(=O)c2c(O)c(S(=O)(=O)O)cc(O)c21 [Example 2, 1,4-dihydroxy-9,10-anthraquinone-3-sulfonic acid]
Cyclic voltammetry (CV)
  redox peaks location, higher-potential set: ~1.08 V
  redox peaks location, lower-potential set: ~0.11 V

## 9,10-anthraquinone-2,7-disulfonate [Scheme 1 ID 1]
Solubility
  solubility: ~1000 mM
